The source of these data is a melting point compilation (Tetko et al.; mined from patent text by program, amines drawn as free bases though some values may be those of a salt).

`Cn1c(=O)c2c(ncn2Cc2noc(CCO)n2)n(C)c1=O`: the melting point amounted to 145 °C. Regarding `O=C(CSCCOc1ccccc1)c1ccc2[nH]c3ncc(Cl)cc3c2c1`, the melting point fell in the range of 167 to 168 °C. Then `CC(C)(C#N)c1cc(CO)cc(C(C)(C)C#N)c1`, with 151 to 153 °C; and `BrCc1ccc(-c2ccc3c(c2)OCO3)cc1`, with 78 to 81 °C; and `COc1cc(N)c([N+](=O)[O-])cc1C(=O)O`, with 254 °C. Compound `CN(C)c1ccc(N(c2ccc(N(C)C)cc2)C2(c3ccc(N(C)C)cc3)OC(=O)c3cc(N(C)C)ccc32)cc1` (stereo unspecified) came in with a melting point of 86 to 92 °C. Then `COc1cc2cnnc(N3CCC(CCN(C)C(=O)N(C)C)CC3)c2cc1OC`, with 140 to 141 °C; and `CCCC(N)(CO)CCCc1ccc(Sc2cccc(OCc3ccccc3)c2)cc1Cl` (single isomer, unassigned; (+)), with 55 to 57 °C; and `N#CCCCN1CC=C(c2ccccc2)CC1`, with 57 to 59 °C.

Regarding `O=C(OCC1OC(c2ccc(Cl)c(Cc3cc4ccccc4s3)c2)C(OC(=O)c2ccccc2)C(OC(=O)c2ccccc2)C1F)c1ccccc1` (stereo unspecified), the melting point lay in the range of 204 to 207 °C.

For the compound `O=C(Nc1ccncc1)c1ccc(C2=NCCN2)cc1`, the melting point was greater than 250 °C. `O=C(O)CCc1cc2cc(C(=O)c3ccccc3)ccc2n1S(=O)(=O)c1ccccc1` displayed a melting point of 138 °C. `CC(Cl)(Cl)C(NC(=O)c1ccc(C(F)(F)F)cc1)NC(=NS(=O)(=O)C(F)(F)F)Nc1cccnc1` (stereo unspecified): the melting point fell in the range of 214 to 215 °C. In the case of `CC(=O)OC1CSC(Oc2ccc3oc(C)nc3c2)C(OC(C)=O)C1OC(C)=O` (stereo unspecified), the melting point is 168 °C. Then `CCn1cc(-c2cccc(Cl)c2)c(=O)n1-c1cccc(C(F)(F)F)c1`, with 113 to 114 °C; and `CN1C(=O)CCC2(C)c3ccc(Sc4cncc5ccccc45)cc3CCC12` (stereo unspecified), with 161 to 163 °C; and `CN(C)CCOc1ccc(C(=C(c2ccccc2)C(F)(F)F)c2ccc(O)cc2)cc1`, with 149 to 155 °C. `COC(=O)C(Cc1ccccc1)Oc1ccc2cc(CNC(=O)c3ccc(C4CCCCC4)cc3)ccc2c1Br` (stereo unspecified): the melting point fell in the range of 160 to 161 °C. `CCCc1cc2c(=O)cc(C(=O)O)[nH]c2cc1OCCCOc1c(CCC)cc(C(C)=O)c(O)c1CCC` registered a melting point of 128 to 131 °C. `COC(COC(=O)C1=C(C)NC2=C(C(=O)CNC2)C1c1cccc(Cl)c1Cl)c1ccccc1` (stereo unspecified) had a melting point of 150 to 153 °C. Compound `CCCCCCCN(CCCCCSc1nc(-c2ccccc2)c(-c2ccccc2)[nH]1)C(=O)NCCC` showed a melting point of 78 to 80 °C. The compound `CN(C)CCNS(=O)(=O)c1cc(NC(=O)c2cnn3c(C(F)(F)F)cc(-c4ccc(C(F)(F)F)cc4)nc23)c(Cl)s1` registered a melting point of 198 °C.

Turning to `Cc1ccc(NS(=O)(=O)c2ccc(-c3cnc4[nH]c(CCC5CCCCC(=S)N5)nc4c3)cc2)c(F)c1` (stereo unspecified), the melting point came to 271 °C. With `NC1=NC(=O)N(CC2CC2)CC1Br` (stereo unspecified), the melting point lay within 139 to 143 °C.

`CC(C)n1nc(-c2sc(C(=O)NCc3ccccn3)nc2-c2ccc(F)cc2)ccc1=O`: the melting point is 204 to 205 °C.

In turn, `N#CN=C(Nc1cccnc1)NC(NC(=O)c1ccc(Cl)cc1)C(F)(F)F` (stereo unspecified) gave a melting point of 136 to 138 °C. Turning to `Cc1nc(OCC#N)c(C#N)c(N2CCc3ccccc3CC2)n1`, the melting point fell in the range of 68 to 74 °C. With `Nc1ccc(-c2cn(C3CCN(Cc4ccccc4)CC3)c3ncnc(N)c23)cc1F`, the melting point lay in the range of 141 to 142 °C.

Compound `O/N=C1\CCCc2c1c1ccccc1n2-c1ccc(O)cc1` returned a melting point of 227 to 229 °C. Consider `CN1CCC(=C2c3ccccc3C=Cc3ccc(C#N)cc32)CC1`, for which the melting point fell in the range of 141 to 146 °C. In the case of `COc1ccc(S(=O)(=O)C2(C(=O)NO)CCN(Cc3ccc(Cl)c(Cl)c3)CC2)cc1` it was 192 to 195 °C; in that of `N#CC1=C(C2CCCCCC2)Nc2n[nH]cc2C1c1cccc2nonc12` (stereo unspecified), 228 °C; in that of `CCOC1CN(Cc2cccc(OC)c2)Cc2cc(OC)c(O)cc21` (stereo unspecified), 134 to 135 °C. As for `CC1(C)OC(c2ccc(S(C)(=O)=O)cc2)=C(c2cccc(C(F)(F)F)c2)C1=O`, the melting point fell in the range of 115 to 116 °C. The compound `NS(=O)(=O)c1ccc(N2CCN(Cc3cn4ccccc4n3)CC2)cc1` had a melting point of 238 to 242 °C. Then `O=c1[nH]c(C2(F)CC2)nc2c1cnn2-c1ncc(C(F)(F)F)cc1Cl`, with 211 °C; and `N#CC(=Cc1ccc([N+](=O)[O-])cc1)c1ccc([N+](=O)[O-])cc1`, with 216 to 218 °C. As for `CC(C)(C)C1c2ccccc2-c2cc(Br)ccc2N1S(=O)(=O)c1ccc(O)cc1` (stereo unspecified), the melting point lay within 245 to 247 °C. Regarding `Fc1ccccc1-c1noc2c(Cl)c(OCc3nnn[nH]3)ccc12`, the melting point was in the range of 198 to 200 °C. Take `O=C(Nc1cccnc1S(=O)(=O)c1ccc(Cl)cc1)N[C@@H](Cc1ccc(NC(=O)c2c(Cl)cccc2Cl)cc1)C(=O)O`: the melting point came to 181 °C. With `NS(=O)(=O)c1ccc(-c2cnn(Cc3ccccc3)c(=O)c2Cc2ccc(F)cc2)cc1`, the melting point lay within 120 to 123 °C. For `CON=C(C(C)=C(ON)c1ccccc1C(=NOC)C(=O)OC)c1ccc(Cl)cc1`, the melting point lay within 115 to 117 °C. Then `Oc1cccnc1Sc1cccc(Br)c1`, with 125 to 126 °C. As for `Oc1ccc(-c2c3ccccc3cc3sc4ccccc4c23)cc1`, the melting point fell in the range of 112 to 116 °C. For `Clc1ccc(-c2nnc(CSCCOc3ccccc3)o2)cn1`, the melting point is 113 to 115 °C. In the case of `Cc1ccc(-c2ccc(C(=O)Nc3cc4ncc(CN5CCCC5)cc4cc3C)cc2)cc1`, the melting point was in the range of 191 to 193 °C. For the compound `CC(C)(C)OC(=O)c1cc(N=Nc2ccccc2CCC(=O)O)ccc1O`, the melting point is 86 to 88 °C. Regarding `COC(=O)c1cc(C#N)ccc1Cl`, the melting point was in the range of 100 to 103 °C. `O=C(CCC#Cc1ccccn1)Nc1ccc(Cl)cc1` gave a melting point of 110 to 111 °C. In turn, `CSc1nc(O)c(C=O)c(O)n1` registered a melting point greater than 250 °C. Turning to `Cn1cc(C(=O)NCc2ccc(Cl)cc2)c(=O)c2cc(CN3CCOCC3)cc(C#CCC(CO)CO)c21`, the melting point was 190 to 193 °C. Take `COc1nc(SCc2ccccc2)ncc1Br`: the melting point was in the range of 48 to 49 °C. In turn, `COc1cc(NCCCCCCN2CCN(CCCO)CC2)c2nccc(C)c2c1` showed a melting point of 100 to 102 °C.

As to `COc1nc(Cl)cc2nc(S(=O)(=O)Nc3ccn(C)n3)nn12`, the melting point lay within 185 to 187 °C. In turn, `COC(=O)Cc1nc(-c2ccc(Cl)cc2)oc1-c1ccsc1` had a melting point of 127 to 128 °C. `COc1cc(OC)nc(NC(=O)NS(=O)(=O)C(C)c2ccccc2[N+](=O)[O-])n1` (stereo unspecified) registered a melting point of 168 to 170 °C. In the case of `Cc1nc2ccccc2c(=O)n1-c1nnn[nH]1` it was 225 to 226 °C; in that of `CCCc1c(OCCCCc2cccc(O)c2O)ccc(C(C)=O)c1O`, 103 to 105 °C. In the case of `Nc1cc2c(cc1F)OC(=O)CN2` it was greater than 250 °C; in that of `Cc1cc(NC2CN(C(=O)OCc3ccccc3)CC2O)c2cc(C)c(-c3ccc(Cl)cc3Cl)n2n1` (stereo unspecified), 105 to 110 °C. The compound `CC1(C)SC(c2cccnc2)NC1C(=O)O` (stereo unspecified) displayed a melting point of 164 to 165 °C. In the case of `COc1ccc2c(c1)CCc1cc(=O)[nH]nc1-2` it was 246 to 248 °C; in that of `CS(=O)(=O)Nc1ccc(NC(=O)CCl)cc1`, 174 to 177 °C; in that of `Cc1[nH]cc2c1-c1ccc(Cl)cc1C(c1ccccc1F)=NC2`, 226 to 227 °C. For `O=C(O)c1cccc(CC2COc3ccc(OCc4nc5cc(F)ccc5s4)cc3C2O)c1` (stereo unspecified), the melting point lay within 208 to 210 °C. In the case of `CCOC(=O)CNC(=O)c1nc2ccc(NCCCN3CCC(OC(c4ccccc4)c4ccccc4)CC3)nn2c1C` it was 158 to 160 °C; in that of `OCC1OC(n2c(S)nc3c(NCc4ccccc4)ncnc32)C(O)C1O` (stereo unspecified), 145 to 148 °C. Then `Clc1csc(-c2cccnc2)n1`, with 84 to 86 °C; and `Cc1c(-c2cccc(O)c2)sc(C#N)c1-c1ccc(O)cc1`, with 240 to 241 °C. In turn, `CNc1nc(-c2cccc(-c3ccccc3)c2)c2cc(OC)c(OC)cc2n1` had a melting point of 183 to 185 °C. Turning to `COC(=O)C1=C(C)NC(C)=C(C(=O)NC(C)C)C1c1ccccc1[N+](=O)[O-]` (stereo unspecified), the melting point lay in the range of 203 to 206 °C. Then `Nc1nc2c(s1)-c1c(cnn1-c1ccccc1)CC2`, with 307 to 308 °C; and `CC(=O)NCCc1c(-c2ccccc2)oc2ccc3c(c12)OCCO3`, with 192 °C. As for `Cc1ccc(CNC(=O)c2ccc3n2Cc2ccccc2N(C(=O)c2ccc(-c4ccccc4C)c(C)c2)C3)cc1`, the melting point fell in the range of 179 to 181 °C.

Regarding `CS(=O)(=O)O[C@H]1CCNC1=O`, the melting point was in the range of 122 to 124 °C. On to `COc1ccc(-c2cn(C)cc(-c3ccc(OC)c(OC)c3)c2=O)cc1OC`, for which the melting point is 182 to 184 °C. Turning to `CN1CCCC1=NC(=O)Nc1cc(Cl)ccc1Cl`, the melting point lay within 148 to 150 °C. The compound `CNc1nc(-c2cncc(C#Cc3cccnc3)c2)c2cc(OC)c(OC)cc2n1` came in with a melting point of 208 to 211 °C.

In turn, `O=c1cc(N2CCOCC2)oc2ccc(Br)cc12` yielded a melting point of 147 to 149 °C. Regarding `COc1cc(N)c(C(N)=O)cc1C(=O)N[C@H]1CCN(Cc2ccc(F)cc2)C[C@H]1OC` (relative stereo), the melting point was found to be 244 °C. Then `Cc1nc(N)c2nc(C)n(CCNC(=O)N3CCOCC3)c2c1C`, with 219 to 221 °C; and `Nc1nc(O)cc(CCl)n1`, with 195 to 197 °C; and `COc1ccc(Nc2nc(NN3CCCCCC3)nc(N(C)C3CCNCC3)n2)cc1Cl`, with 81 °C. Compound `CC(=O)CC(=O)NCC1(C)CC(NC(=O)CC(C)=O)CC(C)(C)C1` (stereo unspecified) came in with a melting point of 144 to 147 °C. For the compound `Cc1ccc(S(=O)(=O)NCCCCCCCCCCCn2c3c(c4ccccc4c2=O)C(=O)c2ccccc2-3)cc1`, the melting point fell in the range of 170 to 172 °C.

Consider `COC(=O)C=Cc1ccc(OCC2CCCCC2)cc1`, for which the melting point amounted to 104 °C.

One may read the melting point as the temperature, or range, at which the solid turns liquid.
